Results as given in patent US20240099295A1, “CELL TREATMENT AGENT” (AYA Inc., priority 2021, published 2024).

Columns and labels:
Format in all cases: cell-based
[1] = tested on: Rat corneal epithelial cell; experiment: Cell protective effect: cell survival during preservation (trypan blue excretion test); conditions: for Average survival rate at 72 hours: refrigerator 4° C.; for Average survival rate at 24 hours: normal temperature (22° C.)
Experimental: Using a normal serum-free cell culture solution without FBS or a Ringer's solution (Otsuka Pharmaceutical Co., Ltd., Lactec Injection, Japanese Pharmacopoeia, Sodium L-lactate Ringer's solution) as a conditioning solution for use, for example, in preservation and transportation of cells, sodium alginate (Na alginate) (Fuji Chemical Industry Co., Ltd. Snow Algin SSL, viscosity of 1% aqueous solution is 30 mPa·s at 20° C.) was added to the conditioning solution in the concentrations shown in Table 1 to prepare cell preservation solutions. To each cell preservation solution, the above-described cells were added at a concentration of 10^6 cells/ml to satisfy the conditions shown in Table 1, and the resultant solution was left to stand in a room at normal temperature (22° C.) for 24 hours, and then whether cells were alive or dead was determined, and rates of viable cells (average survival rate (%)) were calculated and compared. Cell viability was determined by the trypan blue excretion test that is the ordinary method of confirming cell viability. The excretion test was performed according to the method described in “Denizot F., et al., Rapid colorimetric assay for cell growth and survival. Modifications to the tetrazolium dye procedure giving improved sensitivity and reliability. J. Immunol. Methods, 89, 271-277 (1986)”. The results are of N=4.
The average survival rate (%) was determined in the same manner as in Experimental Example (1-1-1) except that the preservation conditions were changed to leaving still for 72 hours in a refrigerator at a set temperature of 4° C. The results are of N=4.
The average survival rate (%) of cells was determined in the same manner as in Experimental Example (1-1-1) except that dextran sulfate (dextran sulfate special grade reagent available from NACALAI TESQUE, INC.) was used instead of sodium alginate and the conditions were as shown in Table 3. The results are of N=4.
The average survival rate (%) of cells was determined in the same manner as in Experimental Example (1-2-1) except that the preservation conditions were changed to leaving still for 72 hours in a refrigerator at a set temperature of 4° C. and to conditions shown in Table 4. The results are of N=3 in the case of using a serum-free cell culture solution, and are of N=4 in the case of using a Ringer's solution.
The average survival rate (%) of cells was determined in the same manner as in Experimental Example (1-1-1) except that heparin sodium (Heparin Na Mochida, unfractionated heparin, available from Mochida Pharmaceutical Co., Ltd.) was used instead of alginic acid and the conditions were as shown in Table 5. The results are of N=4.
The average survival rate (%) of cells was determined in the same manner as in Experimental Example (1-3-1) except that the preservation conditions were changed to leaving still for 72 hours in a refrigerator at a set temperature of 4° C. and to conditions shown in Table 6. The results are of N=4.
The average survival rate (%) of cells was determined in the same manner as in Experimental Example (1-3-2) except that urinastatin (Miraclid injection solution, containing 2.5 million units, available from Mochida Pharmaceutical Co., Ltd.) was used as a proteolytic enzyme inhibitor instead of heparin sodium and the conditions were as shown in Table 7. The results are of N=4. “Unit (U)” in the unit of concentration (units/mL) of inhibitor a in Table 7 can be measured, for example, by the quantitative method of urinastatin in the Japanese Pharmacopoeia 15th revision. Specifically, absorbance at 405 nm of a sample solution is measured with a UV 240 spectrophotometer, and concentration of urinastatin can be calculated from a calibration curve prepared in advance. […]

[2] = tested on: Rat corneal epithelial cell; experiment: Cell dormancy effect: cell cycle analysis by flow cytometry; conditions: serum-free cell culture solution, cultured 48 hours at 37° C.
Experimental: Sodium alginate (sodium alginate first grade reagent, available from FUJIFILM Wako Pure Chemical Corporation, viscosity of 1% aqueous solution is 120 mPa·s at 20° C.), DS (the same as in Experimental Example 1), or sodium heparin (the same as in Experimental Example 1) was used as an active ingredient in the cell treatment agent, and whether cell dormancy occurs or not by action of the active ingredient was examined by comparing the activities of cell division and proliferation which are the most general cell activities in the following manner.
The cell cycle was analyzed by flow cytometry according to the method described in known literature (Piotr Pozarowski and Zbigniew Darzynkiewicz, “Analysis of Cell Cycle by Flow Cytometry,” Methods in Molecular Biology, vol. 281: Checkpoint Controls and Cancer, Volume 2), and frequency of cell division and proliferation was compared between different active ingredients of the cell treatment agent. A specific method is as follows. Using a normal serum-free cell culture solution as a conditioning solution (comparison reference (a)), (b) a cell preservation solution in which sodium alginate (Na alginate) is added to the conditioning solution in a concentration of 2.5 mg/ml, (c) a cell preservation solution in which DS is added to the conditioning solution in a concentration of 0.1 mg/ml, and (d) a cell preservation solution in which heparin sodium (heparin Na) is added to the conditioning solution in a concentration of 50 units/ml, were prepared. To these cell preservation solutions, rat corneal epithelial cells were added at a cell concentration of 10^5 cells/ml and cultured for 48 hours under normal cell culture conditions (37° C., CO2 concentration of 5%, humidity of 100%). The number of cells in each culture was determined by cell cycle analysis using flow cytometry to determine the number of cells in each cell cycle, and the percentage of cells in the S phase, G2 phase, and M phase, which are considered as the periods of the cell division and proliferation process, was compared with the percentage of cells in the G0 phase and G1 phase, which are considered as other periods. The results are of N=4.

[3] = tested on: Rat corneal epithelial cell; experiment: Cell detaching and suspending effect under gentle shaking (Experimental Example 5); conditions: cell culture solution containing 10% FBS, 37° C.
Experimental: In the same manner as in Experimental Example 4, rat corneal epithelial cells were sufficiently adhered to the culture dish wall which is a scaffold.
To the culture solutions in the culture dish on which cultured cells obtained in the manner as described above had adhered, each active ingredient was added in a concentration shown in Table 14, or no active ingredient was added. Each culture dish was then placed on the base of a shaker (product name: Laboshaker Model BC-740, available from BIO CRAFT Corporation), the shaking intensity was set to the lowest level, and the shaking frequency was set to 4 times/min, and cells were cultured under normal cell culture conditions (37° C., CO2 concentration of 5%, humidity of 100%) for 24 hours while each culture dish was gently shaken. Then, detachment and suspension of cells after 24 hours of culturing was observed. For determination of detachment and suspension, whether cells were detached from the dish wall and suspended under shaking of the culture dish was observed, and the case where 90% or more of the cells were detached and suspended was determined as “detached and suspended”, and “detached and suspended” cells were marked with “∘” and “undetached and unsuspended” cells were marked with “x”. The results are of N=4.

Substance: heparin sodium [Heparin Na, reference compound]
- Average survival rate at 72 hours ([1]; Heparin Na 5 units/mL, Ringer's solution): 70%
- Average survival rate at 24 hours ([1]; Heparin Na 5 units/mL, serum-free cell culture solution): 69%
- Average survival rate at 72 hours ([1]; Heparin Na 25 units/mL, Ringer's solution): 72%
- Average survival rate at 24 hours ([1]; Heparin Na 25 units/mL, serum-free cell culture solution): 75%
- Average survival rate at 72 hours ([1]; Heparin Na 125 units/mL, Ringer's solution): 74%
- Average survival rate at 24 hours ([1]; Heparin Na 125 units/mL, serum-free cell culture solution): 76%
- Percentages of cells of each cell cycle: G0 phase + G1 phase ([2]; Heparin Na 50 units/mL): 89.7%
- Percentages of cells of each cell cycle: S phase + G2 phase + M phase ([2]; Heparin Na 50 units/mL): 7.68%
- Detachment at lapse of 24 hours after addition of active ingredient ([3]; Heparin Na 100 units/mL): ∘ (“detached and suspended” cells were marked with “∘”)

Substance: dextran sulfate [DS]
- Average survival rate at 72 hours ([1]; DS 0.003 mg/mL, Ringer's solution): 67%
- Average survival rate at 24 hours ([1]; DS 0.003 mg/mL, serum-free cell culture solution): 62%
- Average survival rate at 72 hours ([1]; DS 0.003 mg/mL, serum-free cell culture solution, N=3): 76%
- Average survival rate at 72 hours ([1]; DS 0.1 mg/mL, Ringer's solution): 71%
- Average survival rate at 24 hours ([1]; DS 0.1 mg/mL, serum-free cell culture solution): 71%
- Average survival rate at 72 hours ([1]; DS 0.1 mg/mL, serum-free cell culture solution, N=3): 79%
- Average survival rate at 72 hours ([1]; DS 1 mg/mL, Ringer's solution): 60%
- Average survival rate at 24 hours ([1]; DS 1 mg/mL, serum-free cell culture solution): 73%
- Average survival rate at 72 hours ([1]; DS 1 mg/mL, serum-free cell culture solution, N=3): 73%
- Percentages of cells of each cell cycle: G0 phase + G1 phase ([2]; DS 0.1 mg/mL): 92.4%
- Percentages of cells of each cell cycle: S phase + G2 phase + M phase ([2]; DS 0.1 mg/mL): 5.77%
- Detachment at lapse of 24 hours after addition of active ingredient ([3]; DS 0.5 mg/mL): ∘ (“detached and suspended” cells were marked with “∘”)
